US9212163B2, “Pesticidal compositions and processes related thereto” (Dow AgroSciences LLC, priority 2012, dated 2015)

These molecules were tested on Beet Armyworm (BAW) (Spodoptera exigua) (assay: Bioassay on Beet Armyworm (BAW), 128-well diet tray assay). Conditions: Table 3: Assay Results Part 1.
Format: in vivo
Description: Certain molecules disclosed in this document were tested against BAW, CEW and CL using procedures described in the following examples. In the reporting of the results, the “BAW & CEW & CL Rating Table” was used (See Table Section).
Bioassays on BAW (Spodoptera exigua)
Bioassays on BAW were conducted using a 128-well diet tray assay. One to five second instar BAW larvae were placed in each well (3 mL) of the diet tray that had been previously filled with 1 mL of artificial diet to which 50 μg/cm^2 of the test compound (dissolved in 50 μL of 90:10 acetone-water mixture) had been applied (to each of eight wells) and then allowed to dry. Trays were covered with a clear self-adhesive cover, and held at 25° C., 14:10 light-dark for five to seven days. Percent mortality was recorded for the larvae in each well; activity in the eight wells was then averaged. The results are indicated in the tables entitled “Table 3: Assay Results Part 1” and “Table 4: Assay Results Part 2” (See Table Section).
`CCC(=O)NCc1ccc(/C=C/C(c2cc(Cl)cc(Cl)c2)C(F)(F)F)cc1` (stereo not drawn) [CC4] was tested, and the “BAW Rating” value was “A (50-100)”. `O=C(CNC(=O)c1ccc(/C=C/C(c2cc(Cl)c(F)c(Cl)c2)C(F)(F)F)cc1Br)NCC(F)(F)F` (stereo not drawn) [AC79, (E)-2-Bromo-4-(3-(3,5-dichloro-4-fluorophenyl)-4,4,4-trifluorobut-1-en-1-yl)-N-(2-oxo-2-((2,2,2-trifluoroethyl)amino)ethyl)benzamide] was tested, and the “BAW Rating” value was “A (50-100)”. With `CCNC(=O)NCc1ccc(/C=C/C(c2cc(Cl)c(Cl)c(Cl)c2)C(F)(F)F)cc1Br` (stereo not drawn) [CC33] the “BAW Rating” value was “A (50-100)”. `COc1c(Cl)cc(C(/C=C/c2ccc(-n3cncn3)cc2)C(F)(F)F)cc1Cl` (stereo not drawn) [DC20] was tested, and the “BAW Rating” value was “A (50-100)”. With `O=C(Cn1ncc2cc(/C=C/C(c3cc(Cl)c(F)c(Cl)c3)C(F)(F)F)ccc2c1=O)NCC(F)(F)F` (stereo not drawn) [BC14, (E)-2-(6-(3-(3,5-Dichloro-4-fluorophenyl)-4,4,4-trifluorobut-1-en-1-yl)-1-oxophthalazin-2(1H)-yl)-N-(2,2,2-trifluoroethyl)acetamide] the “BAW Rating” value was “A (50-100)”. With `FC(F)(F)c1cc(C(/C=C/c2ccc(-n3cncn3)cc2)C(F)(F)F)cc(C(F)(F)F)c1` (stereo not drawn) [DC16] the “BAW Rating” value was “A (50-100)”. In the case of `CNc1cc(/C=C/C(c2cc(Cl)cc(Cl)c2)C(F)(F)F)ccc1-n1cncn1` (stereo not drawn) [DC57, (E)-5-(3-(3,5-Dichlorophenyl)-4,4,4-trifluorobut-1-en-1-yl)-N-methyl-2-(1H-1,2,4-triazol-1-yl)aniline], the “BAW Rating” value was “A (50-100)”. `O=C(NC1CS(=O)(=O)C1)c1ccc(/C=C/C(c2cc(Cl)c(Cl)c(Cl)c2)C(F)(F)F)cc1Cl` (stereo not drawn) [AC30] was tested, and the “BAW Rating” value was “A (50-100)”. `O=C(NCCc1ccc(Cl)nc1)c1ccc(/C=C/C(c2cc(Cl)c(Cl)c(Cl)c2)C(F)(F)F)cc1Br` (stereo not drawn) [AC113] was tested, and the “BAW Rating” value was “B (More than 0-Less than 50)”. In the case of `N#Cc1cc(/C=C\C(c2cc(Cl)c(F)c(Cl)c2)C(F)(F)F)ccc1-n1cncn1` (stereo not drawn) [DC46], the “BAW Rating” value was “A (50-100)”. With `O=C(CNC(=O)c1ccc(/C=C/C(c2cc(Cl)c(F)c(Cl)c2)C(F)(F)F)cc1[N+](=O)[O-])NCC(F)(F)F` (stereo not drawn) [AC98] the “BAW Rating” value was “A (50-100)”. `FC(F)(F)c1cc(/C=C/C(c2cc(Cl)cc(Cl)c2)C(F)(F)F)ccc1-n1cncn1` (stereo not drawn) [DC51] was tested, and the “BAW Rating” value was “A (50-100)”. For `O=C(NC1CCc2cc(/C=C/C(c3cc(Cl)c(Cl)c(Cl)c3)C(F)(F)F)ccc21)C1CC1` (stereo not drawn) [BC6], the “BAW Rating” value was “A (50-100)”. For `O=C(NC1C[S+]([O-])C1)c1ccc(/C=C/C(c2cc(Cl)c(F)c(Cl)c2)C(F)(F)F)cc1F` (stereo not drawn) [AC87], the “BAW Rating” value was “A (50-100)”. With `CONC(=O)CNC(=O)c1ccc(/C=C/C(c2cc(Cl)c(Cl)c(Cl)c2)C(F)(F)F)cc1Br` (stereo not drawn) [AC110] the “BAW Rating” value was “A (50-100)”. With `O=C(NC1CSC1)c1ccc(/C=C/C(c2cc(Cl)cc(Cl)c2)C(F)(F)F)cc1F` (stereo not drawn) [AC61] the “BAW Rating” value was “A (50-100)”. `N#Cc1cc(/C=C/C(c2cc(Cl)c(Cl)c(Cl)c2)C(F)(F)F)ccc1-n1cnc(N(C(=O)C2CC2)C(=O)C2CC2)n1` (stereo not drawn) [DC42, (E)-N-(1-(2-Cyano-4-(4,4,4-trifluoro-3-(3,4,5-trichlorophenyl)but-1-en-1-yl)phenyl)-1H-1,2,4-triazol-3-yl)-N-(cyclopropanecarbonyl)cyclopropanecarboxamide] was tested, and the “BAW Rating” value was “A (50-100)”. With `Cc1cc(/C=C/C(c2cc(Cl)cc(Cl)c2)C(F)(F)F)ccc1C(=O)NCc1ccc(Cl)nc1` (stereo not drawn) [AC7] the “BAW Rating” value was “A (50-100)”. In the case of `O=C(NCc1ccc(Cl)nc1)c1ccc(/C=C/C(c2cc(Cl)c(F)c(Cl)c2)C(F)(F)F)cc1F` (stereo not drawn) [AC65], the “BAW Rating” value was “A (50-100)”. With `CN(C)C(=O)NCc1ccc(/C=C/C(c2cc(Cl)c(Cl)c(Cl)c2)C(F)(F)F)cc1Cl` (stereo not drawn) [CC36, (E)-3-(2-Chloro-4-(4,4,4-trifluoro-3-(3,4,5-trichlorophenyl)but-1-en-1-yl)benzyl)-1,1-dimethylurea] the “BAW Rating” value was “A (50-100)”. With `Cc1cc(/C=C/C(c2cc(Cl)cc(Cl)c2)C(F)(F)F)ccc1C(=O)Nc1ccc(Cl)nc1` (stereo not drawn) [AC59] the “BAW Rating” value was “A (50-100)”. For `FC(F)(F)C(/C=C/c1ccc(-n2cncn2)cc1Cl)c1cc(Cl)c(Cl)c(Cl)c1` (stereo not drawn) [DC66], the “BAW Rating” value was “A (50-100)”. In the case of `CS(=O)(=O)CCC(=O)NCc1ccc(/C=C/C(c2cc(Cl)c(Cl)c(Cl)c2)C(F)(F)F)cc1Cl` (stereo not drawn) [CC30, (E)-N-(2-Chloro-4-(4,4,4-trifluoro-3-(3,4,5-trichlorophenyl)but-1-en-1-yl)benzyl)-3-(methylsulfonyl)propanamide], the “BAW Rating” value was “A (50-100)”. In the case of `O=C(NCc1ccc(/C=C/C(c2cc(Cl)c(Cl)c(Cl)c2)C(F)(F)F)cc1C(F)(F)F)C1CC1` (stereo not drawn) [CC22], the “BAW Rating” value was “A (50-100)”. `O=C(CC(F)(F)F)NCc1ncc(/C=C/C(c2cc(Cl)c(Cl)c(Cl)c2)C(F)(F)F)cc1Cl` (stereo not drawn) [CC44, (E)-N-((3-Chloro-5-(4,4,4-trifluoro-3-(3,4,5-trichlorophenyl)-but-1-en-1-yl)pyridin-2-yl)methyl)-3,3,3-trifluoropropanamide] was tested, and the “BAW Rating” value was “A (50-100)”. With `O=C(Cc1ccc(Cl)nc1)NCc1ccc(/C=C/C(c2cc(Cl)c(Cl)c(Cl)c2)C(F)(F)F)cc1Cl` (stereo not drawn) [CC14] the “BAW Rating” value was “A (50-100)”. With `Cc1cc(C)cc(C(/C=C/c2ccc(-n3cncn3)cc2)C(F)(F)F)c1` (stereo not drawn) [DC11] the “BAW Rating” value was “A (50-100)”. For `FC(F)(F)C(/C=C/c1ccc(-n2cncn2)c(Cl)c1)c1cc(Cl)cc(Cl)c1` (stereo not drawn) [DC50], the “BAW Rating” value was “A (50-100)”. With `O=C(CC(F)(F)F)NCc1ccc(/C=C/C(c2cc(Cl)cc(Cl)c2)C(F)(F)F)cc1Cl` (stereo not drawn) [CC9] the “BAW Rating” value was “A (50-100)”. For `O=C(CNC(=O)c1ccc(/C=C/C(c2ccc(F)c(Cl)c2)C(F)(F)F)cc1Br)NCC(F)(F)F` (stereo not drawn) [AC99], the “BAW Rating” value was “A (50-100)”. With `CN1CCC(NC(=O)c2ccc(/C=C/C(c3cc(Cl)c(Cl)c(Cl)c3)C(F)(F)F)cc2Br)CC1` (stereo not drawn) [AC106, (E)-2-Bromo-N-(1-methylpiperidin-4-yl)-4-(4,4,4-trifluoro-3-(3,4,5-trichlorophenyl)but-1-en-1-yl)benzamide] the “BAW Rating” value was “A (50-100)”. For `FC(F)(F)C(/C=C/c1ccc(-n2cncn2)cc1)c1ccc(Cl)c(Cl)c1` (stereo not drawn) [DC12], the “BAW Rating” value was “A (50-100)”. With `O=C(NC1CSC1)c1ccc(/C=C/C(c2cc(Cl)c(F)c(Cl)c2)C(F)(F)F)cc1F` (stereo not drawn) [AC67] the “BAW Rating” value was “A (50-100)”. For `Cc1cc(/C=C/C(c2cc(Cl)cc(Cl)c2)C(F)(F)F)ccc1C(=O)NC(C)(C)c1ccccn1` (stereo not drawn) [AC16], the “BAW Rating” value was “A (50-100)”. For `Cc1cc(/C=C/C(c2cc(Cl)cc(Cl)c2)C(F)(F)F)ccc1C(=O)NCC1CCCO1` (stereo not drawn) [AC118], the “BAW Rating” value was “A (50-100)”. For `Cc1cc(/C=C/C(c2cc(Cl)c(Cl)c(Cl)c2)C(F)(F)F)ccc1-n1cncn1` (stereo not drawn) [DC63], the “BAW Rating” value was “A (50-100)”. In the case of `O=C(C1CC1)N(Cc1ccccn1)Cc1ccc(/C=C/C(c2cc(Cl)c(Cl)c(Cl)c2)C(F)(F)F)cc1C(F)(F)F` (stereo not drawn) [CC29, (E)-N-(Pyridin-2-ylmethyl)-N-(4-(4,4,4-trifluoro-3-(3,4,5-trichlorophenyl)but-1-enyl)-2-(trifluoromethyl)benzyl)cyclopropanecarboxamide], the “BAW Rating” value was “A (50-100)”. For `Cc1cc(/C=C/C(c2cc(Cl)cc(Cl)c2)C(F)(F)F)ccc1C(=O)NCC(=O)NC1CSC1` (stereo not drawn) [AC41], the “BAW Rating” value was “A (50-100)”. For `O=C(NCC(=S)NCC(F)(F)F)c1ccc(/C=C/C(c2cc(Cl)c(Cl)c(Cl)c2)C(F)(F)F)cc1Br` (stereo not drawn) [AC92, (E)-2-Bromo-N-(2-thioxo-2-((2,2,2-trifluoroethyl)amino)ethyl)-4-(4,4,4-trifluoro-3-(3,4,5-trichlorophenyl)but-1-en-1-yl)benzamide], the “BAW Rating” value was “A (50-100)”.
